Measured values from patent publication US20160166604A1, “Thiol-Sensitive Positive Inotropes” (priority 2005, published 2016).
“Also recorded” adds a separate entry of the source.

Columns and labels:
[1] = biological target: T1, SR Ca2+ pump (SERCA2a) (Mus musculus, UniProt O55143); experiment: ATP-dependent Ca2+ uptake by murine cardiac SR vesicles (stopped-flow, arsenazo III); format: biochemical
T1 construct: Crude cardiac microsomal vesicles containing fragmented sarcoplasmic reticulum (SR) were prepared; from tissue; host or cells: pooled hearts of C57 male mice (crude SR microsomal vesicles)
Experimental: Crude cardiac microsomal vesicles containing fragmented sarcoplasmic reticulum (SR) were prepared as previously described for rat heart. Froehlich, J. P. et al., J. Mol. Cell. Cardiol., 10, 427-438 (1978). Pooled hearts from C57 male mice sacrificed by cervical dislocation were placed in 0.9% saline on ice, trimmed of atrial and connective tissue, and weighed. The finely minced heart muscle was homogenized in 10 mM NaHCO3 using a Polytron blender and the SR vesicles were separated from the myofilaments, mitochondria and nuclear membranes by differential centrifugation at 8,500 and 45,000×g. SR vesicles suspended in 0.25 M sucrose+10 mM MOPS, pH 7.0 were frozen and stored in liquid nitrogen prior to use. Twenty minutes prior to measuring Ca^2+ uptake, cardiac SR vesicles (1 mg/ml in storage buffer) were incubated with 250 μM AS delivered from a freshly-prepared 10 mM stock solution of AS (Na2N2O3) dissolved in 10 mM NaOH. […] Stopped-flow mixing was used to measure the initial time course of Ca^2+ accumulation by murine cardiac SR vesicles using the Ca^2+ indicator dye, arsenazo III. Membrane vesicles (0.4 mg/ml) suspended in a medium containing 100 mM KCl, 1 mM MgCl2, 50 μM arsenazo III, 5 mM sodium azide, and 20 mM MOPS, pH 7.4, were mixed with an equal volume of an identical medium containing 1 mM Na2ATP at 24° C. in a manually-operated stopped-flow apparatus (Applied Photophysics, Ltd.). The change in [Ca^2+] in the mixing cuvette was monitored using a single-beam UV-VIS spectrophotometer (AVIV, Model 14DS) with a monochromator setting of 650 nm. The total [Ca^2+] in the uptake medium was 0.5 μM, yielding a free [Ca^2+] in equilibrium with the Ca-arsenazo III complex of 0.2 μM (KA=3.3×10^4 M^−1). […] The time-dependent decrease in absorbance at 650 nm, reflecting Ca^2+ uptake by the SR vesicles, was monitored for 30-60 s at 0.1 s intervals. […] The signal change due to vesicle light scattering was evaluated from separate measurements conducted under identical conditions at the isosbestic wavelength of 693 nm. For evaluation of the time course of Ca^2+ uptake, a representative trace at 693 nm was subtracted from each of the individual traces at 650 nm acquired under identical conditions. The kinetic and thermodynamic parameters for Ca^2+ uptake were evaluated by fitting stopped-flow signals to one- and two-exponential decay functions plus a residual term using non-linear regression (Prism, Version 3.03). Residual plots of the difference between the fitted curve and data points were used to evaluate systematic errors in the fits and to calculate the sum-of-squares error used in selecting the best fit.
To test whether HNO directly enhances SR Ca^2+ uptake, its effects on SR membrane vesicles isolated from pooled C57/Bl6 mouse hearts were studied. Crude SR microsomal vesicles were incubated with 250 μM AS prior to measuring ATP-dependent Ca uptake by stopped-flow mixing at 24° C. Arsenazo III, a mid-range Ca indicator, was used to monitor Ca removal from the eravesicular compartment and buffer the free [Ca^2+] at a level producing half-saturation of the Ca^2+ pump (˜0.2 μM).

[2] = system: isolated mouse ventricular myocytes; experiment: Sarcomere shortening in field-stimulated isolated mouse ventricular myocytes; format: cell-based
Experimental: Wild type 2-4 month old mice were anesthetized with intraperitoneal pentobarbital sodium (100 mg/kg/ip). Hearts were perfused as previously described. Mongillo, M. et al., Circ. Res., 98, 226-234 (2006). To assess for sarcomere shortening, cells were imaged using field stimulation (Warner instruments) in an inverted fluorescence microscope (Diaphot 200; Nikon, Inc). Sarcomere length was measured by real-time Fourier transform (IonOptix MyoCam, CCCCD100M) and cell twitch amplitude is expressed as a percentage of resting cell length. Twitch kinetics was quantified by measuring the time to peak shortening and the time from peak shortening to 50% relaxation. For whole calcium transient measurements, myocytes were loaded with the Ca^2+ indicator fluo-4/AM (Molecular Probes, 20 μM for 30 min) and Ca^2+ transients were measured under field-stimulation at 0.5 Hz in perfusion solution by confocal laser scanning microscope (LSM510, Carl Zeiss). Digital image analysis used customer-designed programs coded in Interactive Data Language (IDL).
Nitroxyl (HNO) confers positive inotropy in vivo. Here, it was determined whether HNO action stems from a direct influence on sarcoplasmic reticulum (SR) Ca^2+ cycling, involving enhanced Ca^2+ release from ryanodine receptors (RyR2). Myocytes were isolated from ST mice, suspended in Tyrode's solution (1 mM Ca^2+) and field stimulated (0.5 Hz, 25° C.). Sarcomere shortening (SS) was assessed by real-time image analysis, Ca^2+ transients from Indo-1 fluorescence. RyR2 activity was determined by optical imaging of Ca^2+ release from single Ca^2+ release units.

[3] = biological target: T2, RyR2 (Mus musculus, UniProt E9Q401); experiment: Spontaneous Ca2+ sparks and spark frequency in intact murine myocytes; format: cell-based; conditions: for effect on Ca2+ sparks in control and AS (0.5 mM) cells: thapsigargin 10 μM, 30 min, ryanodine 10 μM
T2 construct: endogenous in cells; host or cells: freshly isolated adult mouse cardiac myocytes
Experimental: Freshly isolated mouse cardiac myocytes were loaded with the Ca^2+ indicator fluo-4/AM (Molecular Probes, 20 μM for 30 min). Confocal images were acquired using a confocal laser-scanning microscope (LSM510, Carl Zeiss) with a Zeiss Plan-Neofluor 40× oil immersion objective (NA≈1.3). Fluo-4/AM was excited by an argon laser (488 nm), and fluorescence was measured at >505 nm. Images were taken in the line-scan mode, with the scan line parallel to the long axis of the myocytes. Each image consisted of 512 line scans obtained at 1.92 ms intervals, each comprising 512 pixels at 0.10 μm separation. Digital image analysis used customer-designed programs coded in Interactive Data language (IDL) and a modified spark detection algorithm. Cheng, H. et al., Biophys. J., 76, 606-617 (1999).
Nitroxyl (HNO) confers positive inotropy in vivo. Here, it was determined whether HNO action stems from a direct influence on sarcoplasmic reticulum (SR) Ca^2+ cycling, involving enhanced Ca^2+ release from ryanodine receptors (RyR2). Myocytes were isolated from ST mice, suspended in Tyrode's solution (1 mM Ca^2+) and field stimulated (0.5 Hz, 25° C.). Sarcomere shortening (SS) was assessed by real-time image analysis, Ca^2+ transients from Indo-1 fluorescence. RyR2 activity was determined by optical imaging of Ca^2+ release from single Ca^2+ release units. The HNO donor Angeli's Salt (AS) induced dose-dependent inotropy (SS: 73±31% at 0.5 mM; 131±31% at 1 mM; all n=15, p<0.05 vs. base; <0.1 mM: no effect). In contrast, the NO donor DEA/NO reduced SS by 55-65% at 5-50 μM (both p<0.05 vs. base), with no effect at higher doses. […] However, co-infusion with the thiol-donating compound N-acetyl-L-cysteine (NAC, 3 mM) abolished AS inotropy.

[4] = End-diastolic pressure-volume relationship (EDPVR) in chronically instrumented dogs with pacing-induced cardiac failure; format: in vivo; conditions: CHF dog preparations
Experimental: Adult male mongrel dogs (22-25 kg) were chronically instrumented for pressure-dimension analysis as described. See, Paolocci et al., “Positive Inotropic and Lusitropic Effects of HNO/NO− in Failing Hearts: Independence from Beta-Adrenergic Signaling,” Proc. Natl. Acad. Sci. USA., 100, 5537-5542 (2003); and Senzaki et al., Circulation, 101, 1040-1048 (2000). Animals were anesthetized with 1% to 2% halothane after induction with sodium thiopental (10-20 mg/kg, i.v.). The surgical/experimental animal protocol was approved by the Johns Hopkins University Animal Care and Use Committee. […] Cardiac failure was induced by rapid ventricular pacing for 3 weeks as described. See, Paolocci et al., supra, and Senzaki et al., supra.
Hemodynamic data were digitized at 250 Hz. […] These relations strongly correlate with results from pressure-volume data in normal and failing hearts, as previously validated. Cardiovascular function was assessed by stroke dimension, fractional shortening (stroke dimension/end-diastolic dimension [EDD]), estimated cardiac output (stroke dimension×HR), peak rate of pressure rise (dP/dtmax), end-systolic elastance (Ees, slope of end-systolic pressure-dimension relation [ESPDR]), the slope of dP/dtmax-EDD relation (DEDD) (see, Little, Circ Res., 56:808-815 (1985)), pre-recruitable stroke work (PRSW), (based on dimension-data), estimated arterial elastance (Ea, end systolic pressure/stroke dimension) and estimated total resistance (RT, […]). Ees, DEDD and PRSW provide load-insensitive contractility measures.
The end-diastolic pressure-volume relationship (EDPVR) was determined applying non-linear regression analysis to the end-diastolic pressure and volume points (Ped and Ved, respectively), according to Kass, Cardiol Clin., 18, 571-86 (2000) (Review).
In order to evaluate the impact of each pharmacological intervention on the EDPVR, changes in end-diastolic pressure from baseline (ΔPed) at volumes providing baseline end-diastolic pressure of […] mmHg EDP (V10, V15, V20, respectively) were determined (FIG. 5).

[5] = system: cardiac myocytes from WT and Gαq overexpressing FVB/N mice; experiment: Sarcomere shortening in cardiac myocytes from WT and Gαq overexpressing mice; format: cell-based, mouse; conditions: for enhancement of sarcomere shortening: WT cells
Experimental: Cardiac myocytes were isolated from WT and Gαq overexpressing 2-6 month old FVB/N mice, suspended in Tyrode's solution (1 mM calcium) and field stimulated at 0.5 Hz at 23° C. Sarcomere shortening (SS) was assessed by real-time image analysis; data are presented at steady-state (10 minutes drug infusion).

T2 sequence (E9Q401 whole entry): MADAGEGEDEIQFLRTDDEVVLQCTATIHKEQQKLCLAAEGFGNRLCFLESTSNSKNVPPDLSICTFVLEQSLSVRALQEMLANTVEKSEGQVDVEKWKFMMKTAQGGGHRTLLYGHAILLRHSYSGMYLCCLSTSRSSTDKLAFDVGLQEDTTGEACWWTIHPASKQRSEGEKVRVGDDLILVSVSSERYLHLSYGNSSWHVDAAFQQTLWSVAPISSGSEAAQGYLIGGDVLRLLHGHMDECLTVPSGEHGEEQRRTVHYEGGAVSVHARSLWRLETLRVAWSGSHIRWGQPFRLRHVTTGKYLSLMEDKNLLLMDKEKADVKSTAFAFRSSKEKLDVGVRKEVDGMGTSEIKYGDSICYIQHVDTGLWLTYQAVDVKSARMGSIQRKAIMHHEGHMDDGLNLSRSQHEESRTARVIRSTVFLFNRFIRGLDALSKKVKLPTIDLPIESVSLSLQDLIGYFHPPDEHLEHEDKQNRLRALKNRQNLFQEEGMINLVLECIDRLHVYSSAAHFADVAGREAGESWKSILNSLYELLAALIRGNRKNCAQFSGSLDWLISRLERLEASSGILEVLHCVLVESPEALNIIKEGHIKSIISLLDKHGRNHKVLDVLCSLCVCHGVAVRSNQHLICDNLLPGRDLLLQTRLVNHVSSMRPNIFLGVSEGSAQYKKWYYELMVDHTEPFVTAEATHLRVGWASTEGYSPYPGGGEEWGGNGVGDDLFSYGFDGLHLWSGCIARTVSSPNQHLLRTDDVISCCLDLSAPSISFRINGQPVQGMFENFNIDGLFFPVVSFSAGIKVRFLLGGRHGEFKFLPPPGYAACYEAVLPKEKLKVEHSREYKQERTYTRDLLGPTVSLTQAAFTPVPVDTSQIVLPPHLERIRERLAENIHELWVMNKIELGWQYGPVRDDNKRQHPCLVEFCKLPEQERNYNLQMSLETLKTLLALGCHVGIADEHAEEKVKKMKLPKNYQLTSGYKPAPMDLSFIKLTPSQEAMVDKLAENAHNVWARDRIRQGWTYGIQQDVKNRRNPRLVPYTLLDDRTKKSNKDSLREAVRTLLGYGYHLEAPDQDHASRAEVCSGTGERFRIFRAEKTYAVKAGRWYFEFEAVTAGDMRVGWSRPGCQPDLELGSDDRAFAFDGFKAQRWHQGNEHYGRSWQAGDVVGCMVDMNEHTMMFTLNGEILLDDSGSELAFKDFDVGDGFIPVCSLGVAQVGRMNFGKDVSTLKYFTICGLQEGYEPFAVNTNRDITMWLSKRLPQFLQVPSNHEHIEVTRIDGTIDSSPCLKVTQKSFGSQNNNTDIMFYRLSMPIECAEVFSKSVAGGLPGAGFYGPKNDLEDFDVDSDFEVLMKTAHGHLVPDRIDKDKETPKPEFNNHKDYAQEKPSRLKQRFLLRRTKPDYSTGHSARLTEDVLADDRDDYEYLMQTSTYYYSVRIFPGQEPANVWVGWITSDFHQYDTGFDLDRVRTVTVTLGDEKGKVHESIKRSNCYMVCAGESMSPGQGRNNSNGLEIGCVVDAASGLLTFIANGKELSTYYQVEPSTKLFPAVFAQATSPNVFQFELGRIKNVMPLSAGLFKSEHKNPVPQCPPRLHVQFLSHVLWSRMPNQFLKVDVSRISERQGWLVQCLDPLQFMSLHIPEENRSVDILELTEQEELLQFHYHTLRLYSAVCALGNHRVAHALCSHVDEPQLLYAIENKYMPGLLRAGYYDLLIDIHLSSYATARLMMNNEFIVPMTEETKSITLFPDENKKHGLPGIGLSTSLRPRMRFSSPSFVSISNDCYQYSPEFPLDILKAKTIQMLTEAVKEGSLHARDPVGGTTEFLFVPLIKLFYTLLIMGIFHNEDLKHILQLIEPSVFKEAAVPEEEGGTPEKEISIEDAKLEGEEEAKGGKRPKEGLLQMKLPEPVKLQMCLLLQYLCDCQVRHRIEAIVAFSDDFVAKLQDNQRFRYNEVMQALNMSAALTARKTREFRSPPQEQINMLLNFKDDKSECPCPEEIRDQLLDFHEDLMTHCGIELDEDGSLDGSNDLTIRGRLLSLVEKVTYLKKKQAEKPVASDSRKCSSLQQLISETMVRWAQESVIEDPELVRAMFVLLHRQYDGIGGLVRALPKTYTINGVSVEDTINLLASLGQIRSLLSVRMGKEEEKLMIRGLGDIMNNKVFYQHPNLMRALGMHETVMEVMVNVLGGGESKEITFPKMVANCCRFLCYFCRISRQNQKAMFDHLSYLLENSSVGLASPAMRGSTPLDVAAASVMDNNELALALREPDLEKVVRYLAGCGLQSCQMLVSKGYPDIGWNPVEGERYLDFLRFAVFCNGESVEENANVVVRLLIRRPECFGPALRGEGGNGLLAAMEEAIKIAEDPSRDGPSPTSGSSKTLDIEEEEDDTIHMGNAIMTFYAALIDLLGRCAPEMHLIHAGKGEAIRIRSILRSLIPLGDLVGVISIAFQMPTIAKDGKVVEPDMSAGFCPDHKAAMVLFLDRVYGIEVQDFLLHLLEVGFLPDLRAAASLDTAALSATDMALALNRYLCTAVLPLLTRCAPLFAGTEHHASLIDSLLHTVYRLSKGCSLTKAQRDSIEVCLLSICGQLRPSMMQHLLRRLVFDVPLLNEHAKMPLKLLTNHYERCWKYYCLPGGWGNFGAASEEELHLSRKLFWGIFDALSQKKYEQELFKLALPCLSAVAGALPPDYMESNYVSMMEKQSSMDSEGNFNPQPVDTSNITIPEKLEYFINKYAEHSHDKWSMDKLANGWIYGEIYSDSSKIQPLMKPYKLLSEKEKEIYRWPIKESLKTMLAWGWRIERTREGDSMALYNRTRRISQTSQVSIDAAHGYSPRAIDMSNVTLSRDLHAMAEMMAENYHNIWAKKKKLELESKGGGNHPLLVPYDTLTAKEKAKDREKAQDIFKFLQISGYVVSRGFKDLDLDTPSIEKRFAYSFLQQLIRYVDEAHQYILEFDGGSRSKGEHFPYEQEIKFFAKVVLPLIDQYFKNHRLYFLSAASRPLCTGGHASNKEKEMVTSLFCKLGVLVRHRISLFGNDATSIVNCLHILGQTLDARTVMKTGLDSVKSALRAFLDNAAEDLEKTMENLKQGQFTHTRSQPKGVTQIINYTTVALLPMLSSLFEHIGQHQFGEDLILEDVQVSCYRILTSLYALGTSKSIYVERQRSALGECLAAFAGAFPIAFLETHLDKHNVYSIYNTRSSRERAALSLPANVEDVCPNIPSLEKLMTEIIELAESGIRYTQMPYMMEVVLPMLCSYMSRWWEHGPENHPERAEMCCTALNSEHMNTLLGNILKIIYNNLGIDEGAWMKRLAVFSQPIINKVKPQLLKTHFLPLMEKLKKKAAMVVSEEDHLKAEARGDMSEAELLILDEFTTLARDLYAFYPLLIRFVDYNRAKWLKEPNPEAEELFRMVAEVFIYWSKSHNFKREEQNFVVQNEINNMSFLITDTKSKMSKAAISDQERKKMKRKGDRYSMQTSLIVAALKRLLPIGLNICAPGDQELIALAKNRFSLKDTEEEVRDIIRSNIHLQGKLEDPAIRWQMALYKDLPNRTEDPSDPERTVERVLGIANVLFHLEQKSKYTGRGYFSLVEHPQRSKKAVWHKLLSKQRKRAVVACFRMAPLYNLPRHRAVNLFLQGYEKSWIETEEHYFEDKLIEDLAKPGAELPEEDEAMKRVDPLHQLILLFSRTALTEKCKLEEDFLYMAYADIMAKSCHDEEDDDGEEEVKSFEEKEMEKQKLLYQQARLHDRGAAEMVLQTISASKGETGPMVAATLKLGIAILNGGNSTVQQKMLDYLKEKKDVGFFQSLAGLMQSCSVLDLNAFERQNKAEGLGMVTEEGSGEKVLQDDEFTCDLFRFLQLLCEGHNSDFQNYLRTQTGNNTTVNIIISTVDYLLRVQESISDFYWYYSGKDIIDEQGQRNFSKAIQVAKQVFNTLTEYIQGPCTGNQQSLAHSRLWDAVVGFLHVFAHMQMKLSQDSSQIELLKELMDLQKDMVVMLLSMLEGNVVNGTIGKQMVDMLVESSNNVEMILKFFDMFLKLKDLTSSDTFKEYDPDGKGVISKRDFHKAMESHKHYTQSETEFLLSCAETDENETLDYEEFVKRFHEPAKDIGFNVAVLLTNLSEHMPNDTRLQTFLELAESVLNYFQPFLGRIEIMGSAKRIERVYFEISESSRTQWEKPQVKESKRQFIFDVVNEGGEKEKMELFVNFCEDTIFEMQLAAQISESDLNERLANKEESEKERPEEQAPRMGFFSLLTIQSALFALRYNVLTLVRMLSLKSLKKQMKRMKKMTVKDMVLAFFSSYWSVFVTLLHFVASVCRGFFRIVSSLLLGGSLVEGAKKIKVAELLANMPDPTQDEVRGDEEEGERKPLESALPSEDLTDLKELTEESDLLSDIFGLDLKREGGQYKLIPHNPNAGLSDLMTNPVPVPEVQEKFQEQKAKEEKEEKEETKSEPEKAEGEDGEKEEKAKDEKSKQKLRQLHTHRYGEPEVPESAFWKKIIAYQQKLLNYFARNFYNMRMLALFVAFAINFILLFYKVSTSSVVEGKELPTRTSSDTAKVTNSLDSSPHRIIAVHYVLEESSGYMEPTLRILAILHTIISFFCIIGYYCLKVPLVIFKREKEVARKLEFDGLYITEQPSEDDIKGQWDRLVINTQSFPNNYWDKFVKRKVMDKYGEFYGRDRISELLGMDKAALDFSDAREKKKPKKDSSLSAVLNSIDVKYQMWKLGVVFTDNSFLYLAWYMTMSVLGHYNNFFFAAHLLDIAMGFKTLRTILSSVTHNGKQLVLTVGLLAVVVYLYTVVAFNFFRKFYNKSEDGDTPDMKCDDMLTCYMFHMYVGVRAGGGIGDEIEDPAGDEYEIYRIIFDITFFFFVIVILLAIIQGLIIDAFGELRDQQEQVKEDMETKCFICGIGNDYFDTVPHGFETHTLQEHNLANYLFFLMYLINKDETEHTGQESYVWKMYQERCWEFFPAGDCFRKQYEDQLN

CNc1ccc2oc(C[C@H]3O[C@@]4(CC[C@H]3C)O[C@H]([C@H](C)C(=O)c3ccc[nH]3)[C@H](C)C[C@H]4C)nc2c1C(=O)O [A23187]
decrease of total Ca2+ uptake ([1]; A23187 pre-incubation, 5 μg ionophore/mg SR protein): > 50%

CCN(CC)[N+]([O-])=N[O-].[Na+] [DEA/NO, sodium 2-(N,N-diethylamino)-diazenolate-2-oxide]
effect of co-application on ISO (2.5 nM)-stimulated sarcomere shortening ([2]; DEA/NO 0.25 mM, AS 0.5 mM): markedly blunted | reduction of sarcomere shortening ([2]; DEA/NO 5-50 μM): 55-65% | effect of PKG inhibitor Rp-8Br-cGMPs on the agent's inotropy ([2]; Rp-8Br-cGMPs 10 μM pre-treatment): modest positive response | reproduction of AS increase in sarcomere shortening by equimolar NO donor ([2]; equimolar to AS): not reproduced | effect on sarcomere shortening ([2]; higher doses): no effect; also recorded: minimal changes | effect on sarcomere shortening ([2]; low doses): slight depression | effect on Ca2+ spark frequency ([3]; DEA/NO, increasing / equimolar doses): no effect; also recorded: did not significantly affect | effect on end-diastolic pressure-volume relationship (EDPVR) [4]: parallel down-ward shift

C=C[C@@]1(C)CC(=O)[C@]2(O)[C@@]3(C)[C@@H](O)CCC(C)(C)[C@@H]3[C@H](O)[C@H](OC(C)=O)[C@@]2(C)O1 [FSK, forskolin]
increase in sarcomere shortening ([5]; Gαq myocytes, 25 nM FSK): 85±9% | increase in sarcomere shortening ([5]; Gαq myocytes, 100 nM FSK): 158±62%

CC(C)N[N+]([O-])=N[O-].[Na+] [IPA/NO, isopropylamine diazeniumdiolate]
effect on end-diastolic pressure-volume relationship (EDPVR) [4]: downward shift; also recorded: declined significantly

CC(C)NCC(O)c1ccc(O)c(O)c1 (centres unmarked) [ISO, isoproterenol]
increase in sarcomere shortening ([2]; ISO 2.5 nM, n=30): 100±27% | effect of PKA inhibitor Rp-CPT-cAMPs on the agent's enhancement of sarcomere shortening ([2]; Rp-CPT-cAMPs 100 μM pre-treatment): blunts | contractile response ([5]; Gαq myocytes, ISO 2.5 and 10 nM): did not elicit any contractile response | enhancement of sarcomere shortening ([5]; ISO 2.5 nM): 74±24% | enhancement of sarcomere shortening ([5]; ISO 10 nM): 250±75%

O=NO [NO2^−, nitrite]
effect on sarcomere shortening ([2]; 25-250 μM NO2- and higher or lower doses): no effect

O=[N+]([O-])OCC(CO[N+](=O)[O-])O[N+](=O)[O-] [NTG, nitroglycerin]
effect on end-diastolic pressure-volume relationship (EDPVR) [4]: parallel down-ward shift | effect on end-diastolic pressure-volume relationship (EDPVR) ([4]; listed as nitroglycerin): parallel downward shift

C/C=C(/C)C(=O)O[C@H]1C(C)=C2[C@H]([C@@H]1OC(=O)CCCCCCC)[C@@](C)(OC(C)=O)C[C@H](OC(=O)CCC)[C@@]1(O)[C@H]2OC(=O)[C@@]1(C)O [thapsigargin]
effect on Ca2+ sparks in control and AS (0.5 mM) cells [3]: abolished | effect on SR vesicle Ca2+ uptake ([1]; thapsigargin 10 μM): abolished

ryanodine
effect on Ca2+ sparks in control and AS (0.5 mM) cells [3]: abolished
